Square brackets hold non-standard residues; d marks the D form. Ends that are not written are not given here. pGlu = O=C1CC[C@@H](C(=O)O)N1
Key:
[1] = test system: panelists (salt perception); test: Increased Salt Perception Protocol (descriptive sensory panel); assay type: in vivo, human; details: for Mean salt perception in mouth: scale anchored to 0.35% salt reference = 5.0; for Mean salt perception after expectoration: re-tasting of salt reference (0.35% salt, intensity 5.0)
Protocol: Descriptive Profiles (Flavor and Chemical Feeling Factors) of five use levels of a pGlu-Val-Leu flavor composition were determined. The five use levels were as follows:
Data was collected for the flavor and chemical feeling factors of the product in mouth for each of the five use levels according to the following protocol:
1. Each panelist tasted a salt reference (0.35% salt solution) with a reference salt intensity of 5.0 which provided a baseline for each panelist's Sensory Spectrum for salt intensity.
2. Each panelist tasted a test sample (0.1 ppb, 0.5 ppb, 1.0 ppb, 10.0 ppb or 40.0 ppb all in 0.2% NaCl solution). Only one sample was tasted per session.
3. Each panelist re-tasted the salt reference (5.0 intensity) and rated it for salt intensity as well as any other basic taste, chemical feeling factor, or aromatic perceived. Thus, any increased salt perception as a result of the test sample would be determined, as well as any other perceptions present. Return to Baseline Protocol
The test samples were formulated as follows: […]

[2] = test system: panelists (salt perception); test: Return to Baseline Protocol (saltiness aftertaste, sensory panel); assay type: in vivo, human; details: salt reference re-tasted at 1 minute intervals until intensity 5.0
Protocol: After evaluating the sample for salt and other perceptions (step 3 above), each panelist re-tasted the salt reference (5.0 intensity) at 1 minute intervals until their perception of the saltiness intensity of the reference returned to 5.0. Each panelist recorded salt intensity at each interval and took qualitative notes on other perceptions seen in aftertaste.

[pGlu]-Val-Leu
Mean salt perception in mouth ([1]; 0.1 ppb peptide in 0.2% NaCl solution): 2.3 | Mean salt perception after expectoration ([1]; 0.1 ppb sample): 6.8 | perception of salt in-mouth as concentration increased ([1]; 0.1 to 40.0 ppb in 0.2% NaCl solution): did not significantly increase | Mean salt perception in mouth ([1]; 0.5 ppb peptide in 0.2% NaCl solution): 2.8 | Mean salt perception after expectoration ([1]; 0.5 ppb sample): 6.4 | Mean salt perception in mouth ([1]; 1.0 ppb peptide in 0.2% NaCl solution): 2.3 | Mean salt perception after expectoration ([1]; 1.0 ppb sample): 7.5 | Mean salt perception in mouth ([1]; 10.0 ppb peptide in 0.2% NaCl solution): 3.1 | Mean salt perception after expectoration ([1]; 10.0 ppb sample): 8.2 | Mean salt perception in mouth ([1]; 40.0 ppb peptide in 0.2% NaCl solution): 2.8 | Mean salt perception after expectoration ([1]; 40.0 ppb sample): 8.3 | Salt perception after expectoration ([1]; all samples (0.1 to 40.0 ppb), versus reference intensity 5.0): increased | Mean time needed to return to baseline ([2]; 0.1 ppb sample): 7.6 min | Mean time needed to return to baseline ([2]; 0.5 ppb sample): 9.5 min | Mean time needed to return to baseline ([2]; 1.0 ppb sample): 8.7 min | Mean time needed to return to baseline ([2]; 10.0 ppb sample): 8.6 min
